For 28 compounds, logP and logD results are on record in the SangsterLogP compilation.

Assay in one data set: not given
Conditions: not given
In general, logP refers to a log measure of how a compound divides between an organic and an aqueous phase. `O=C1CSC(c2cccc(Br)c2)N1c1ccccc1` (stereo not drawn) gave a logP of 2.44. Still for that read-out and setting: to `O=C1CSC(c2cccc(Cl)c2)N1c1ccccc1` (stereo not drawn) belongs 2.32. The same measure, in the same setting: in the case of `O=C1CS(=O)C(c2ccccc2)N1c1cccc([N+](=O)[O-])c1` (stereo not drawn) it was 1.09; in that of `O=C1CSC(c2cccc(F)c2)N1c1ccccc1` (stereo not drawn), 1.9.

Compound `O=C1CSC(c2ccccc2)N1c1ccc(O)cc1` (stereo not drawn) displayed a logP of 1.29. `N#Cc1ccc(C2SCC(=O)N2c2ccccc2)cc1` (stereo not drawn): the logP turned out to be 1.32. Still for that read-out and setting: in the case of `O=C1CS(=O)C(c2ccccc2)N1c1ccccc1` (stereo not drawn) it was 1.07; in that of `O=C1CSC(c2ccc(Br)cc2)N1c1ccccc1` (stereo not drawn), 2.66. On the same count and under the same terms, to `COc1ccc(N2C(=O)CS(=O)C2c2ccccc2)cc1` (stereo not drawn) belongs 1.07; to `O=C1CSC(c2ccccc2)N1c1ccc(Cl)cc1` (stereo not drawn), 2.42. On the same count and under the same terms, in the case of `Cc1ccc(N2C(=O)CSC2c2ccccc2)cc1` (stereo not drawn) it was 2.32; in that of `O=C1CS(=O)(=O)C(c2ccccc2)N1c1cccc([N+](=O)[O-])c1` (stereo not drawn), 1.09; in that of `O=C1CSC(c2ccccc2)N1c1cccc(Br)c1` (stereo not drawn), 2.58. Compound `O=C1CS(=O)C(c2cccc(Br)c2)N1c1ccccc1` (stereo not drawn) showed a logP of 1.63. Still for that read-out and setting: to `COc1ccc(N2C(=O)CS(=O)(=O)C2c2ccccc2)cc1` (stereo not drawn) belongs 1.09. On the same count and under the same terms, to `O=C1CSC(c2ccc([N+](=O)[O-])cc2)N1c1ccccc1` (stereo not drawn) belongs 1.75.

In turn, `COc1cccc(C2SCC(=O)N2c2ccccc2)c1` (stereo not drawn) yielded a lipophilicity (logP) of 1.96. As to `O=C1CSC(c2cccc([N+](=O)[O-])c2)N1c1ccccc1` (stereo not drawn), the logP was 1.73. On the same count and under the same terms, to `COc1ccc(C2SCC(=O)N2c2ccccc2)cc1` (stereo not drawn) belongs 1.97; to `O=C1CSC(c2ccccc2)N1c1ccc(Br)cc1` (stereo not drawn), 2.56; to `O=C1CSC(c2ccccc2)N1c1ccccc1` (stereo not drawn), 1.88. `COc1ccc(N2C(=O)CSC2c2ccccc2)cc1` (stereo not drawn) gave a logP of 1.92. The same measure, in the same setting: in the case of `Cc1ccc(C2SCC(=O)N2c2ccccc2)cc1` (stereo not drawn) it was 2.48; in that of `O=C1CSC(c2ccc(Cl)cc2)N1c1ccccc1` (stereo not drawn), 2.52. Same read-out and setting: in the case of `O=C1CS(=O)(=O)C(c2cccc(Br)c2)N1c1ccccc1` (stereo not drawn) it was 1.63; in that of `O=C1CSC(c2ccccc2)N1c1cccc([N+](=O)[O-])c1` (stereo not drawn), 1.9. On the same count and under the same terms, to `Cc1cccc(C2SCC(=O)N2c2ccccc2)c1` (stereo not drawn) belongs 2.3.

Another data set is described as follows: method code SF-AS, from Woolston, C.; Lee, J.; Swinbourne, F. (1994). Partition coefficients and chromatographic parameters of some substituted 1,3-thiazolidin-4-ones. Ind. J. Chem., Sect. B, 33(6)590-592. The note with it: pH 7.4.
In general, logD refers to the decadic logarithm of the distribution of all forms, ionised or not, between an organic phase and buffer at a given pH. A higher logD goes with higher lipophilicity. For the compound `O=C1CS(=O)(=O)C(c2ccccc2)N1c1ccccc1` (stereo not drawn), the logD worked out at 1.23.
